{"source": "patent US20140086881A1", "about": "“GOOD HEALTHY CELLS FOUND IN PROTEINS, THEIR APPLICATIONS, AND PROCESS OF MAKING A MEDIUM TO HARVEST THE CELLS” (priority 2012, published 2014)", "key": {"lung cancer cells": {"test_system": "lung cancer cells", "experiment": "KH mediums vs lung cancer cells, in-vitro well study", "format": "cell-based", "from_the_text": "From which other companies in China have produced Human Albumin for use in the cell growth instead of feta bovine serum and also\nThe above have been discovered in In-Vitro well study but not tested for CCK8 to measure the degree of inhibition of the cancer cells by each of the mediums. Such a study has been performed on Oct. 4, 2012 it is amazing to find out that all series of medium from KH100, KH200 and KH300 have different level of effect on the inhibition of the lung cancer, leukemia, gastric and breast both solid tumors and blood cancer have been tested."}, "atherosclerotic model": {"test_system": "atherosclerotic model", "details": "for Animal Wounded, Total: n = 10, reason: fighting each other; for Animal Dead, Total: n = 10 ApoE ko mice, high fat diet", "from_the_text": "10 ApoE ko mice were fed with regular chow diet and used as negative control group. 50 ApoE ko mice were fed with high fat diet (35% kcal fat, 1% cholesterol) for 8 weeks, and then the plasma samples were collected for lipid profile measurement before the treatment. 50 ApoE ko mice were assigned into 5 groups based on the fasting overnight plasma TC and HDL level.\n• 23 Dec. 2011: 60 ApoE mice arrived at chempartner and were housed in the animal facility in the building #3 for the acclimation. • 6 Jan. 2012: Measured the body weight for each mouse. 50 mice were fed with high fat diet and 10 mice were fed with normal chow diet. • 2 Mar. 2012: All mice were fasted over night and plasma samples (about 300 ul whole blood) were collected for lipid profile measurement before treatment with RAAS antibody. • 19 Mar. 2012 to 6 Apr. […] 2012: All mice were fasted over night and plasma sample for each mouse (about 300 ul whole blood) was collected for lipid profile measurement after 16 weeks treatment. Blood glucose was also measured for each mouse. • 9 Jul. 2012: The study was terminated after 16 weeks treatment. Measure BW, sacrificed each mouse, dissected the aorta, heart, liver and kidney and fixed them in 4% PFA.\nAntibody products were administrated by intraperitoneal injection every two days (Monday, Wednesday, and Friday). and the positive compound was administered by p.o every day.\nThe body weight was weighed weekly during the period of treatment.\nThe fasting overnight blood glucose was measured at the end of study by Roche glucometer.\nAbout 300 ul of blood sample was collected from the orbital vein for each mouse and centrifuged at 7000 rpm for 5 min at 4° C. and the plasma lipid profile was measured by Roche Modular automatic biochemistry analyzer in DaAn Medical Laboratory\nAfter RAAS antibody products treatment for 16 weeks, all mice were sacrificed. Measured body weight and collected blood sample for each mouse. Weighed liver weight and saved a tiny piece of liver into 4% paraformaldehyde (PFA) fixation solution for further analysis. At same time, take the photos with heart, lung, aortas and two kidneys.\n1. Sacrificed the mice and dissected the heart, aorta, and arteries under dissecting microscope.\n4. Stain with freshly prepared Oil Red O working solution 10 min. • 1). Oil red O stock stain: 0.5% powder in isopropanol • 2). Working solution: dilute with distilled water (3:2) and filter with membrane (0.22 um)\nScanning the glasses slides with the Aperio ScanScope system and analyze with the image proplus software to measure the area of atherosclerotic plaque lession. The results were expressed as the percentage of the total aortic surface area covered by lesions. The operation procedure of software was briefly described as follow: Converted the sys version photos into JPG version, then calibrated it and subsequently selected the red regions and then calculate the total area automatically by image proplus software.\nThe results were expressed as the Mean±SEM and statistically evaluated by student's t-test.\nArea Percent (%)=Sum Area of Atherosclerotic Plaque (Mm^2)/Whole Area of Vascular Inner Wall (Mm^2)"}, "HBV in HepG2.2.15": {"test_system": "HBV in HepG2.2.15", "experiment": "Anti-HBV potency in stable HBV cell line (HBV DNA real time PCR)", "format": "cell-based", "details": "Hepatitis B virus", "description": "Lamivudine is diluted with 3-fold for 9 concentrations.\ni) Cell culture medium: RPM 1640-4% FBS-1% Pen/Strep-1% Glutamine ii) HepG2.2.15 cell culture: Grow the cells in T75 flask. Incubated at 37° C., 95% humidity, 5% CO2.\nf) Refresh protein-containing medium on day 3 of drug treatment. g) Collect culture media from the HepG2.2.15 plates on day 6 followed by HBV DNA extraction using QIAamp 96 DNA Blood Kit (QIAGEN #51161). 2) Real time PCR for HBV DNA quantification. a) Dilute HBV plasmid standard by 10-fold from 0.1 ng/ul to 0.000001 ng/ul. b) Prepare realtime PCR mix as shown blow.\nc) Add 15 ul/well PCR mix to 96-well optical reaction plates. d) Add 10 ul of the diluted plasmid standard to C12-H12. […]\n3) Data analysis: A standard curve is generated by plotting Ct value vs. the amount of the HBV plasmid standard, and the quantity of each sample is estimated based on the Ct value projection on the standard curve; percent of HBV inhibition by protein or compound is calculated using the following equation: % Inh.=[1−(HBV quantity of sample−HBV quantity of HepG2 control)/(HBV quantity of 0% Inhibition control−HBV quantity of HepG2 control)]*100."}, "HCV 1a replicon": {"test_system": "HCV 1a replicon", "experiment": "microbe, parasite or virus in culture", "format": "cell-based", "details": "Hepatitis C virus, read-out: EC50 (uM) 1a", "method": "(§1) The cells are counted using hemocytometer.\n(§2) Incubate plate at 5% CO2, 37° C. for 4 hours.\n(§3) Dose-response curves are plotted using Prism."}, "HCV 1b replicon": {"test_system": "HCV 1b replicon", "experiment": "microbe, parasite or virus in culture", "format": "cell-based", "details": "Hepatitis C virus, read-out: EC50 (uM) 1b", "method": "as §1, §2, §3"}, "HCV 2a replicon": {"test_system": "HCV 2a replicon", "experiment": "microbe, parasite or virus in culture", "format": "cell-based", "details": "Hepatitis C virus, read-out: EC50 (uM) 2a", "method": "as §1, §2, §3"}, "HBV": {"test_system": "HBV", "experiment": "HBV mouse hydrodynamic injection (HDI) model", "format": "in vivo, BALB/c mice", "details": "therapeutically-treated mice, from day 3 post HDI to the end", "from_the_text": "Hydrodynamic injection (HDI) is an in vivo gene delivery technology. It refers to transiently transfect the mouse liver cells with a foreign gene via tail vein injection of a large volume saline containing plasmid within a few seconds. Taking the advantage of the liver-targeting manner of hydrodynamic injection, a single hydrodynamic injection of a replication-competent HBV DNA, could result in HBV replication in mouse liver shortly. This HBV hydrodynamic injection model on immunocompetent mice is a convenient and reproducible animal model for anti-HBV compound screening in vivo, which has been successfully established in WuXi ID department.\n• 3.1 Hydrodynamic injection and compound administration • 3.1.1. From day −7 to day 0, all 5 mice in group 4 were administrated i.p./i.v. with test article daily for 8 days according to Table 14.2. • 3.1.2. On day 0, all groups of mice were hydrodynamicly injected via tail vein with pcDNA3.1/HBV plasmid DNA in a volume of normal saline equal to 8% of a mouse body weight. […]\n• 3.2.1.1 Isolate DNA from 50 μl plasma using QIAamp 96 DNA Blood Kit. […] Run qPCR for HBV DNA quantification. a) Dilute HBV plasmid standard by 10-fold from 10^7 copies/μl to 10 copies/μl. b) Prepare qPCR mix as shown below. […]\nHBV DNA quantity=DNA determined by HBV primer-DNA determined by plasmid primer. […]"}, "[1]": {"test_system": "Adjuvant-Induced Arthritis (AIA)", "experiment": "Adjuvant-Induced Arthritis (AIA) in Lewis rats", "details": "35 days and 45 days treatment sections"}}, "note": "Read-outs that look alike come from different tables or passages of the source.", "data": [{"molecule": "bovine human albumin: animal protein product", "values": [{"measurement": "effect on lung cancer cells", "setting": "lung cancer cells", "value": "inhibited lung cancer cell growth"}]}, {"molecule": "APOA 1", "values": [{"measurement": "Animal Wounded, Total", "setting": "atherosclerotic model; high dose 0.1 ml i.p.", "value": 1}, {"measurement": "Animal Dead, Total", "setting": "atherosclerotic model; high dose 0.1 ml i.p., reason: Fighting", "value": 1}, {"measurement": "Animal Wounded, Total", "setting": "atherosclerotic model; low dose", "value": 3}, {"measurement": "Animal Dead, Total", "setting": "atherosclerotic model; low dose, reasons: gastrorrhagia, urinary tract infection (2)", "value": 3}, {"measurement": "Animal Wounded, Total", "setting": "atherosclerotic model; mid dose 0.075 ml i.p.", "value": 1}, {"measurement": "Animal Dead, Total", "setting": "atherosclerotic model; mid dose 0.075 ml i.p., reason: Fighting", "value": 1}]}, {"molecule": "Nc1ccn([C@@H]2CS[C@H](CO)O2)c(=O)n1", "note": "[Lamivudine]", "values": [{"measurement": "EC50", "setting": "HBV in HepG2.2.15", "value": 0.0062, "unit": "µM"}]}, {"molecule": "NC(=O)c1ncn([C@@H]2O[C@H](CO)[C@@H](O)[C@H]2O)n1", "note": "[Ribavirin]", "values": [{"measurement": "EC50", "setting": "HCV 1a replicon", "value": 57.6, "unit": "µM"}, {"measurement": "EC50", "setting": "HCV 1b replicon", "value": 39, "unit": "µM"}, {"measurement": "EC50", "setting": "HCV 2a replicon", "value": 37.4, "unit": "µM"}]}, {"molecule": "C=C1[C@H](CO)[C@@H](O)C[C@@H]1n1cnc2c(=O)[nH]c(N)nc21", "note": "[ETV, Entecavir]", "values": [{"measurement": "HBV replication in plasma", "setting": "HBV", "value": "significant inhibition"}]}, {"molecule": "C[C@@H]1C[C@H]2[C@@H]3CCC4=CC(=O)C=C[C@]4(C)[C@@]3(F)[C@@H](O)C[C@]2(C)[C@@]1(O)C(=O)CO", "note": "[Dex, Dexamethasone]", "values": [{"measurement": "body weight compared with saline group", "setting": "[1]", "value": "reduction of body weight"}]}]}
